Measurements taken from the NIST ThermoML archive (doi:10.1016/j.jct.2008.02.002).
“And” between values parts separate entries of the source, which are not always exact repeats. Identical values can stand only once. Numbers after ± are expanded uncertainties.

Details: Liquid, Transpiration method

CCC1CCC(=O)O1 (stereo unspecified) [2(3H)-furanone, 5-ethyldihydro-]
Details	vapor or sublimation pressure [kPa]
283.3 K	0.00612 ± 0.00032
284.1 K	0.00643 ± 0.00034
285.3 K	0.00733 ± 0.00041
288.2 K	0.00998 ± 0.00053
290.2 K	0.01151 ± 0.00061
293.2 K	0.01468 ± 0.00076
295.3 K	0.0168 ± 0.00088
298.2 K	0.02155 ± 0.0011
300.2 K	0.0271 ± 0.0014
303.2 K	0.0324 ± 0.0017
305.2 K	0.0372 ± 0.0019
308.1 K	0.04647 ± 0.0024
310.1 K	0.05153 ± 0.0027
313.2 K	0.06502 ± 0.0033
315.1 K	0.06992 ± 0.0036
318.2 K	0.08725 ± 0.0046
323.2 K	0.1267 ± 0.0066
328.2 K	0.1719 ± 0.0088
333.2 K	0.2306 ± 0.012
338.2 K	0.3093 ± 0.016
343.1 K	0.4065 ± 0.021
348.2 K	0.5374 ± 0.027
350.9 K	0.6238 ± 0.032
353.3 K	0.6982 ± 0.035

CCCCCC1CCC(=O)O1 (stereo unspecified) [2(3H)-furanone, dihydro-5-pentyl-]
Details	vapor or sublimation pressure [kPa]
296.2 K	0.00085 ± 5e-05
300 K	0.00123 ± 7e-05
306 K	0.00211 ± 0.00011
313.1 K	0.00391 ± 0.0002
318.1 K	0.00574 ± 0.0003
323.2 K	0.0088 ± 0.00046
328.2 K	0.01277 ± 0.00067
333.1 K	0.01835 ± 0.00095
338 K	0.02514 ± 0.0013
342.8 K	0.03648 ± 0.0019
348.4 K	0.05463 ± 0.0028
353.2 K	0.07252 ± 0.0038
358.1 K	0.1037 ± 0.0053
363.4 K	0.1375 ± 0.007

CCCC1CCC(=O)O1 (stereo unspecified) [2(3H)-furanone, dihydro-5-propyl-]
Details	vapor or sublimation pressure [kPa]
298.1 K	0.00729 ± 0.00039
302.8 K	0.01081 ± 0.00057
308 K	0.01613 ± 0.00085
313.1 K	0.02435 ± 0.0013
318 K	0.03459 ± 0.0018
323.1 K	0.05178 ± 0.0027
328.1 K	0.07127 ± 0.0037
333 K	0.09289 ± 0.0048
338.2 K	0.1344 ± 0.007
343.2 K	0.1842 ± 0.0095
348.2 K	0.2432 ± 0.012
353.2 K	0.3239 ± 0.017
358.4 K	0.4408 ± 0.023
363.2 K	0.572 ± 0.029

CCCCCCC1CCC(=O)O1 (stereo unspecified) [γ-decalactone]
Details	vapor or sublimation pressure
298.4 K	0.00035 ± 2e-05 kPa
303.3 K	0.00056 ± 3e-05 kPa
308.2 K	0.00088 ± 5e-05 kPa
313.1 K	0.00146 ± 7e-05 kPa
313.4 K	0.00144 ± 7e-05 kPa
318.2 K	0.00214 ± 0.00011 kPa and 0.00233 ± 0.00012 kPa
322.9 K	0.00339 ± 0.00017 kPa
323.2 K	0.00345 ± 0.00018 kPa
328.1 K	0.00532 ± 0.00028 kPa
328.2 K	0.00523 ± 0.00028 kPa
333 K	0.00765 ± 0.0004 kPa
333.2 K	0.00791 ± 0.00041 kPa
338.1 K	0.0114 ± 0.00059 kPa
338.7 K	0.01181 ± 0.00061 kPa
343.2 K	0.01646 ± 0.00087 kPa
343.9 K	0.01747 ± 0.00092 kPa
348.2 K	0.02361 ± 0.0012 kPa
349.4 K	0.02507 ± 0.0013 kPa
353.3 K	0.03379 ± 0.0017 kPa
354.8 K	0.03595 ± 0.0019 kPa
360.3 K	0.05404 ± 0.0028 kPa
365 K	0.07279 ± 0.0037 kPa

CC1CCC(=O)O1 (stereo unspecified) [γ-valerolactone]
Details	vapor or sublimation pressure [kPa]
275.8 K	0.00748 ± 0.00041
282 K	0.0128 ± 0.00068
288 K	0.02076 ± 0.0011
292.8 K	0.02954 ± 0.0017
293.4 K	0.03202 ± 0.0018
298.6 K	0.04438 ± 0.0023
300.7 K	0.05548 ± 0.0029
302.7 K	0.06032 ± 0.0032
306.6 K	0.08358 ± 0.0043
309 K	0.09563 ± 0.005
312.9 K	0.1265 ± 0.0065
317.3 K	0.1599 ± 0.0082
322.3 K	0.2195 ± 0.011
326.9 K	0.2912 ± 0.015
332.4 K	0.3929 ± 0.02
333.9 K	0.4475 ± 0.023
337.3 K	0.5167 ± 0.026
338.8 K	0.58 ± 0.03
342.6 K	0.7011 ± 0.036
343.8 K	0.759 ± 0.039
347.5 K	0.9099 ± 0.046
349.7 K	1.033 ± 0.053
